Test results reported in patent US7915012B2, “Methods for screening for inhibitors of TRPV2 activation” (Korea University Industry and Academic Collaboration …, priority 2008, dated 2011).

Legend:
rTRPV2 = target: T1, rTRPV2 (Rattus norvegicus, UniProt Q9WUD2, A713V/L151P/T158I); assay: Fluo-3 calcium imaging in TRPV2 transfected HEK293T cell line; assay type: cell-based
T1 construct: expressed in transfected cells; host or cells: HEK293T (ATCC CRL-11268)
T1 sequence (Q9WUD2 1-761 L151P/T158I/A713V): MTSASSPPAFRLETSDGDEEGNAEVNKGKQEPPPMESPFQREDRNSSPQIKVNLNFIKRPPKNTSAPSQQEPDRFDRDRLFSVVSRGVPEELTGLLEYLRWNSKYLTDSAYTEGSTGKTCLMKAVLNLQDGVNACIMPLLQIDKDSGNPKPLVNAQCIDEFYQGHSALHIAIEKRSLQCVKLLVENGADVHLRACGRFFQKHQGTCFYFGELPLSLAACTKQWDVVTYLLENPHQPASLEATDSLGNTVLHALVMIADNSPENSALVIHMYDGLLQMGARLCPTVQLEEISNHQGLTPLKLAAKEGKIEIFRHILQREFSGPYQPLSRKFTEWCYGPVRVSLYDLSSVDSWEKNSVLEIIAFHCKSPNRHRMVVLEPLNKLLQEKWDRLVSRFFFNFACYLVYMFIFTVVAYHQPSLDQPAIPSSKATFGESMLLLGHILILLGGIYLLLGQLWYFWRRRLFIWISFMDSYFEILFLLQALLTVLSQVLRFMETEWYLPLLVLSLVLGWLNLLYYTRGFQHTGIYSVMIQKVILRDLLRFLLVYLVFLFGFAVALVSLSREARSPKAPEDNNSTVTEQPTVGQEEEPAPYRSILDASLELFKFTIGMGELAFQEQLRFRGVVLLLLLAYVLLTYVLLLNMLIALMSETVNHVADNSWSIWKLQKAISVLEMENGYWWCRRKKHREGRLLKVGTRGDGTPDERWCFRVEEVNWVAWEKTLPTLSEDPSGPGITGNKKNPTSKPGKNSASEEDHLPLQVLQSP
Experimental: HEK293T cell line (ATCC CRL-1 1268) was transiently transfected with plasmid DNA containing polynucleotide encoding […] (SEQ. ID. NO: 1), rTRPV2 (SEQ. ID. NO: 2), mTRPV3 (SEQ. ID. NO: 3), rTRPV4 (SEQ. ID. NO: 4), mTRPM8 (SEQ. ID. NO: 5) or mTRPA1 (SEQ. ID. NO: 6).
Particularly, the HEK293T cell line was transiently transfected with individual TRP channel plasmid (pcDNA3.1 containing polynucleotide encoding rTRPV1, rTRPV2, mTRPV3, rTRPV4, mTRPM8 or mTRPA1), and 600 ng/well of pCDNA3 (Invitrogen Corp., USA; containing green fluorescent protein (GFP) cDNA) using Fugene6 (Roche Diagnostics, USA) according to manufacturer's instruction. The transformed cells were cultured in DMEM/F12 containing 10% FBS and 1% penicillin/streptomycin in a CO2 incubator for 24 hours. The cells were replated onto poly-L-lysine-coated glass coverslips, followed by further culture for 10-24 hours.
The TRPV2 transfected cell line prepared in Example 1 was treated with 100 μM probenecid and 300 μM 2-APB.
The TRPV2 transfected cell line prepared in Example 1 was treated with probenecid at different concentrations from 0.1 to 1,000 μM.
Particularly, the transfected cell line of Example <3-1> and Example <3-2> was loaded with Fluo-3AM (5 μM; Sigma Aldrich, USA) in the bath solution (140 mM NaCl, 5 mM KCl, 2 mM CaCl2, 1 mM MgCl2, 10 mM HEPES; adjusted to pH 7.4 with NaOH) containing 0.02% pluronic acid (Invitrogen, USA) at 37° C. for 1 hour. Calcium imaging was performed with a confocal microscope (LSM5 Pascal, Carl Zeiss, Germany), and time-lapse images (excitation 488 nm/emission 514 nm) were collected every 3 seconds using Carl Zeiss ratio tool software (Carl Zeiss, Germany).
The TRPA1, TRPV1, TRPV2, TRPV3, TRPV4 and TRPM8 transfected cell lines prepared by the method of Example 1 and the non-transfected HEK cell line (control group) were treated with 100 μM probenecid. Calcium imaging was performed with the transfected cell lines treated as the above by the same manner as described in Example <3-3>.

Oral aversion test = assay type: in vivo, ICR mice
Experimental: Oral aversion test was confirmed according to the methods of Caterina M J, et al. (Science 288:306-313, 2000) and Kwan K Y, et al. (Neuron 50: 277-289, 2006). Particularly, adult ICR mice randomly selected and raised were allowed to drink water containing 0.125% saccharin (Sigma Aldrich, USA) only for three hours a day. Water and feed were provided for 4 days. Water and feed consumptions were measured everyday. On day 4, water containing 20 mM probenecid was provided for 3 hours. Statistical data were analyzed by two-tailed, unpaired Student's-t-test and the results were presented by mean ±S.E.M.

## CCCN(CCC)S(=O)(=O)c1ccc(C(=O)O)cc1 [probenecid]
rTRPV2; 100 μM probenecid
  TRPV2 activation (calcium imaging): activated
rTRPV2; n=12-62 per experimental value
  n (Hill plot of calcium influx responses): 2.8
rTRPV2; n=12-62 per experimental value, read-out: Kd (Hill plot of calcium influx responses)
  Kd: 31.9 µM
rTRPV2; probenecid 0.1 to 1,000 μM, calcium influx
  maximal effective dose: about 1 mM
rTRPV2; probenecid 0.1 to 1,000 μM, calcium influx, read-out: EC50 (effective concentration 50%) on TRPV2
  EC50: 31.9 µM
Oral aversion test; water containing 20 mM probenecid
  oral aversion: did not induce oral aversion
Oral aversion test; water containing 20 mM probenecid for 3 hours on day 4, n=5
  water and feed consumption, treated versus not treated group: no significant difference
